# What was measured:
# Assay in all cases: radiometric filter-binding kinase assay
# BRSK2 (human) = BRSK2 (human) (UniProt Q8IWQ3)
# TBK1 (human) = TBK1 (human) (UniProt Q9UHD2)
# MARK3 (human) = MARK3 (human) (UniProt P27448)
# PIM1 (human) = PIM1 (human) (UniProt P11309)
# [1] = tested on: AKT1 (human), P31749 [S473D]
# SYK (human) = SYK (human) (UniProt P43405)
# YES1 (human) = YES1 (human) (UniProt P07947)
# MAPK11 (human) = MAPK11 (human) (UniProt Q15759)
# INSR (human) = INSR (human) (UniProt P06213)
# HIPK1 (human) = HIPK1 (human) (UniProt Q86Z02)
# MAP3K5 (human) = MAP3K5 (human) (UniProt Q99683)
# PRKCA (human) = PRKCA (human) (UniProt P17252)
# MAP2K1 (human) = MAP2K1 (human) (UniProt Q02750)
# MAP2K1 (human), sequence (Q02750 whole entry, looked up): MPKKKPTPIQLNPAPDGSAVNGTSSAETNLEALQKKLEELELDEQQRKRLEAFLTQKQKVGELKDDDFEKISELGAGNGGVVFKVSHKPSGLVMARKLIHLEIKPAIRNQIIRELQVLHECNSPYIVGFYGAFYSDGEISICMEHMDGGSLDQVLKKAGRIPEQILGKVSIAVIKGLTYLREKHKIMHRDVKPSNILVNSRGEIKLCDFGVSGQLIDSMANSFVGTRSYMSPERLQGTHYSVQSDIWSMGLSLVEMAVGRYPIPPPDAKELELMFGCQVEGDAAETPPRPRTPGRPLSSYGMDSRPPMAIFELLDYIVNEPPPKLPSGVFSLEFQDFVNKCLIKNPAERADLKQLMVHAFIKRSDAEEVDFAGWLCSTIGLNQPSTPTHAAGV
# GCK (human) = GCK (human) (UniProt Q12851)
# MAPK10 (human) = MAPK10 (human) (UniProt P53779)
# MAPK10 (human), sequence (P53779 whole entry, looked up): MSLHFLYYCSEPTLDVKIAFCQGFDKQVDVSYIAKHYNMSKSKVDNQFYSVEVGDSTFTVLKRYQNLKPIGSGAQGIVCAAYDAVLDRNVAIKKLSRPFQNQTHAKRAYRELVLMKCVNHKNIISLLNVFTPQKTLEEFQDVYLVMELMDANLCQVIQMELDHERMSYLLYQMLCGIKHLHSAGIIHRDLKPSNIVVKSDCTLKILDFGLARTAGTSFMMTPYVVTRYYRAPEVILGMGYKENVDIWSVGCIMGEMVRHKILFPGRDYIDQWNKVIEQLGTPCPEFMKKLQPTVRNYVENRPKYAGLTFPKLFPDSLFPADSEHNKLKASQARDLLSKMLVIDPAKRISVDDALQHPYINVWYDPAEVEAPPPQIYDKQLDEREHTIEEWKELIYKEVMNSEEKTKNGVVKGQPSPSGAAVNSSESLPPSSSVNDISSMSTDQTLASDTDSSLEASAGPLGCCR
# MAPK8 (human) = MAPK8 (human) (UniProt P45983)
# FLT1 (human) = FLT1 (human) (UniProt P17948)
# JAK2 JH1 JH2 (human) = JAK2 JH1 JH2 (human) (UniProt O60674)
# EPHB1 (human) = EPHB1 (human) (UniProt P54762)
# [2] = tested on: RPS6KB1 (human), P23443 [T412E]
# MAP3K1 (human) = MAP3K1 (human) (UniProt Q13233)
# BTK (human) = BTK (human) (UniProt Q06187)
# BTK (human), sequence (Q06187 whole entry, looked up): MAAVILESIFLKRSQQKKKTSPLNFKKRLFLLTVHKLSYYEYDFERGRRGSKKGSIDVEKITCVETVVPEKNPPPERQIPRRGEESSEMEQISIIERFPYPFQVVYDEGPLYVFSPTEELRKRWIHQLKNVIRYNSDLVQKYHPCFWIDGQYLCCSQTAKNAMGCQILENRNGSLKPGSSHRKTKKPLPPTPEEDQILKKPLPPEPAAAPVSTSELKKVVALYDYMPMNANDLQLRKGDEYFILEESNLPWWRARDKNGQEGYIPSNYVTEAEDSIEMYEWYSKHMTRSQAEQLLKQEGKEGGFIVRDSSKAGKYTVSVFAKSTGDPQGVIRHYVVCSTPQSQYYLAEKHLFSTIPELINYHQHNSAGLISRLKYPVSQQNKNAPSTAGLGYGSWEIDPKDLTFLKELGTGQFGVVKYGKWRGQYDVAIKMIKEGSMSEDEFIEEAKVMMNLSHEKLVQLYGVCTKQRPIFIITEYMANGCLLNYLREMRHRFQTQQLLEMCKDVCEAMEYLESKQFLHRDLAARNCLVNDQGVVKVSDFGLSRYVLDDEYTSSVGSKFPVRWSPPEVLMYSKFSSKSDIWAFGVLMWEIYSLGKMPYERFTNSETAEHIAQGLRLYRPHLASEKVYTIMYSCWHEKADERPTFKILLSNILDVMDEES
# MAPK9 (human) = MAPK9 (human) (UniProt P45984)
# MAP3K11 (human) = MAP3K11 (human) (UniProt Q16584)
# TAOK1 (human) = TAOK1 (human) (UniProt Q7L7X3)
# TAOK1 (human), sequence (Q7L7X3 whole entry, looked up): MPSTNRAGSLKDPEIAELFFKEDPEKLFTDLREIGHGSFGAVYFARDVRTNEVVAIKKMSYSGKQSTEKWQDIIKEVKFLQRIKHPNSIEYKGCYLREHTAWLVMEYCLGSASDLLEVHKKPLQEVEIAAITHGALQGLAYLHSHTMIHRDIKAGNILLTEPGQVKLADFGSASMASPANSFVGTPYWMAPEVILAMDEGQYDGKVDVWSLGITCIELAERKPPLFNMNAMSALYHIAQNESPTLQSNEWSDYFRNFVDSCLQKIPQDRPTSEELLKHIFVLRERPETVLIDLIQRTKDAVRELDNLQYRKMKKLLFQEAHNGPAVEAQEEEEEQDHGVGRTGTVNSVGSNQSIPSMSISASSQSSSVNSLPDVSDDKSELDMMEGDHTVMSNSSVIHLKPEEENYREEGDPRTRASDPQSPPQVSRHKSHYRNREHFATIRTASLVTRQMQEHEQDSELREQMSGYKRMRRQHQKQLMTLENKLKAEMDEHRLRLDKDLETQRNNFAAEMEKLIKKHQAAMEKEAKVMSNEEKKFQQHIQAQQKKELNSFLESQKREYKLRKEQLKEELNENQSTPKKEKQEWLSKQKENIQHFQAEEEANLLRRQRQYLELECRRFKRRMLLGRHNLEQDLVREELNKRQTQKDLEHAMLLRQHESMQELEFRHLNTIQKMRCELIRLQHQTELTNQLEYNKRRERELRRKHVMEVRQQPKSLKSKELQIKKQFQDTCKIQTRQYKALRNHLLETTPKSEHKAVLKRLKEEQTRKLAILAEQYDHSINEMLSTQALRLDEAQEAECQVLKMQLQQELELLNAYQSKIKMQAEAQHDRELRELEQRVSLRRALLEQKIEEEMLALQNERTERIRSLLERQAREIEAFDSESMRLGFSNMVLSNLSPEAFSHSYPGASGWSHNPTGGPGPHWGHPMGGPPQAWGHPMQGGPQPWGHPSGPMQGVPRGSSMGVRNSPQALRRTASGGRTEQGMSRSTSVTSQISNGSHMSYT
# EPHA2 (human) = EPHA2 (human) (UniProt P29317)
# DYRK2 (human) = DYRK2 (human) (UniProt Q92630)
# DYRK2 (human), sequence (Q92630 whole entry, looked up): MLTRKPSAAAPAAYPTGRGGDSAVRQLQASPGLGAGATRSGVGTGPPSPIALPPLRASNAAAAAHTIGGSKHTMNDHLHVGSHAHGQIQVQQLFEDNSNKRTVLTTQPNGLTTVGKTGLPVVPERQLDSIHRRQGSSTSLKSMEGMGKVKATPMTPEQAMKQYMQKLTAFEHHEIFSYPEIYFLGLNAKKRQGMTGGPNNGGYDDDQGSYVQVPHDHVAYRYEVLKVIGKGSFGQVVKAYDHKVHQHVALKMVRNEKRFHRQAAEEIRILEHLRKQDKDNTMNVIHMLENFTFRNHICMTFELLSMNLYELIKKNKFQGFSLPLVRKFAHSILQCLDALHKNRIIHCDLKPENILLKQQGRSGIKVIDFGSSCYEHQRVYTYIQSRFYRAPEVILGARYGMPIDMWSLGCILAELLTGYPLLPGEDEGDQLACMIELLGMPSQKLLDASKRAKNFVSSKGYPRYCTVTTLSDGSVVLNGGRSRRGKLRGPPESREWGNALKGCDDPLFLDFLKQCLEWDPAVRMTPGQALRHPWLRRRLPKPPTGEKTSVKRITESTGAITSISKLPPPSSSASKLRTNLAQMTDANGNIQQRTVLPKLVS
# AURKA (human) = AURKA (human) (UniProt O14965)
# AURKA (human), sequence (O14965 whole entry, looked up): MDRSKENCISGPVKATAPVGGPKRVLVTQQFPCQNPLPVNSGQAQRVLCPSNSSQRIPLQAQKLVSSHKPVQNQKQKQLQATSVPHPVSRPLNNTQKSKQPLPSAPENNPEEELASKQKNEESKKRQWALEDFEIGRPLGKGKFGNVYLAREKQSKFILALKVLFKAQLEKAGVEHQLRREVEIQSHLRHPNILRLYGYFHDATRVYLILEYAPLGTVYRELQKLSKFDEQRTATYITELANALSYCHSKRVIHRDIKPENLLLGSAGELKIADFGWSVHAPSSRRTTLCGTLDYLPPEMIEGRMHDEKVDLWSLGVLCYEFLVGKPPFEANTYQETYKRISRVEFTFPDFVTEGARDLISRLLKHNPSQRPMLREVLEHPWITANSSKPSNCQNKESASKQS
# DYRK3 (human) = DYRK3 (human) (UniProt O43781)
# STK3 (human) = STK3 (human) (UniProt Q13188)
# EPHB2 (human) = EPHB2 (human) (UniProt P29323)
# EPHB4 (human) = EPHB4 (human) (UniProt P54760)
# CaMK1 (human) = CaMK1 (human) (UniProt Q14012)
# HIPK2 (human) = HIPK2 (human) (UniProt Q9H2X6)
# BRSK1 (human) = BRSK1 (human) (UniProt Q8TDC3)
# MAPKAPK5 (human) = MAPKAPK5 (human) (UniProt Q8IW41)
# MAPK11 (human), sequence (Q15759 whole entry, looked up): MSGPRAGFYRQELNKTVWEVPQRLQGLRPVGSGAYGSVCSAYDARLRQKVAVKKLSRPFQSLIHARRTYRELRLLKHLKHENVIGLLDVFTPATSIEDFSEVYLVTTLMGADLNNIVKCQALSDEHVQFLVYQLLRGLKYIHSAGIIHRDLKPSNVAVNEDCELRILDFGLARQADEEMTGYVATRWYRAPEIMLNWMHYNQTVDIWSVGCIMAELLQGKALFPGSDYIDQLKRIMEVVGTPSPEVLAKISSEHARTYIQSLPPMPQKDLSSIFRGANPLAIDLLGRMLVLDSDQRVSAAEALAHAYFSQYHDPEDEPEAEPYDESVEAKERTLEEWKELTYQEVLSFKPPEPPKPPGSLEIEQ
# PIM1 (human), sequence (P11309 whole entry, looked up): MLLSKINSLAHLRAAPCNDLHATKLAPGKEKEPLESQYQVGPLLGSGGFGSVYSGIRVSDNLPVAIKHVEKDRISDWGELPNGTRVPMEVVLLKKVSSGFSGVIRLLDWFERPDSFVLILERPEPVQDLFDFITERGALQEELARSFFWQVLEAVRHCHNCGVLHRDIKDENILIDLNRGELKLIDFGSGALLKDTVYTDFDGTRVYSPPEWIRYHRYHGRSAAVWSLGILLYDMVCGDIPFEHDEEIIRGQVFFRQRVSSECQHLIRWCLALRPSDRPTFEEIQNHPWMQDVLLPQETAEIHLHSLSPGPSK
# BRSK2 (human), sequence (Q8IWQ3 whole entry, looked up): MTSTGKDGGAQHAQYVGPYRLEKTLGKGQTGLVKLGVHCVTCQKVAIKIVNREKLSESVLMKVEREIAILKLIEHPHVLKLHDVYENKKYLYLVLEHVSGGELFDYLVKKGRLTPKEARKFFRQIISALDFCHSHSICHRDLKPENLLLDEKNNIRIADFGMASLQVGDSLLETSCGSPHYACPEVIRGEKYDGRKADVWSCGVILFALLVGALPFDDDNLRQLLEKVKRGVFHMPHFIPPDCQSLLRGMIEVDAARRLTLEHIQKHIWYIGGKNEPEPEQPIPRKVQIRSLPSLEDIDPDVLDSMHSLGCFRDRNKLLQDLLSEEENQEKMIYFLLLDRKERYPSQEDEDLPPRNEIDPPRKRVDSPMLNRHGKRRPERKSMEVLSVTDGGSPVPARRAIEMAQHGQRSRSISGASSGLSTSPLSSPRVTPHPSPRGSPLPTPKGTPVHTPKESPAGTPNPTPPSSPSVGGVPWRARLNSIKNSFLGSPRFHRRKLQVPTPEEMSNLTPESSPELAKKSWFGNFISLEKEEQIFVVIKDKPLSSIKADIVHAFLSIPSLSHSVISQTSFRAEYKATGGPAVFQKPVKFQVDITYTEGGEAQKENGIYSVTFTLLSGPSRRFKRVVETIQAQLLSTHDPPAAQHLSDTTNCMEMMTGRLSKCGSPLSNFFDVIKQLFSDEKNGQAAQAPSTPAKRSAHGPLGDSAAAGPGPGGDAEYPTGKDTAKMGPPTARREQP
compound,measurement,setting,value
CCNc1nc(Nc2cc(F)c(C(=O)N3CCOCC3)cc2OC)ncc1C(F)(F)F,residual activity,BRSK2 (human); compound 1.0 µM,80%
same,residual activity,BRSK2 (human); compound 10.0 µM,38%
same,residual activity,TBK1 (human); compound 1.0 µM,62%
same,residual activity,TBK1 (human); compound 10.0 µM,17%
same,residual activity,MARK3 (human); compound 1.0 µM,80%
same,residual activity,MARK3 (human); compound 10.0 µM,41%
same,residual activity,PIM1 (human); compound 1.0 µM,94%
same,residual activity,PIM1 (human); compound 10.0 µM,99%
same,residual activity,[1]; compound 1.0 µM,102%
same,residual activity,[1]; compound 10.0 µM,87%
same,residual activity,SYK (human); compound 1.0 µM,70%
same,residual activity,SYK (human); compound 10.0 µM,33%
same,residual activity,YES1 (human); compound 1.0 µM,104%
same,residual activity,YES1 (human); compound 10.0 µM,104%
same,residual activity,MAPK11 (human); compound 1.0 µM,98%
same,residual activity,MAPK11 (human); compound 10.0 µM,91%
same,residual activity,INSR (human); compound 1.0 µM,19%
same,residual activity,INSR (human); compound 10.0 µM,2%
same,residual activity,HIPK1 (human); compound 1.0 µM,78%
same,residual activity,HIPK1 (human); compound 10.0 µM,35%
same,residual activity,MAP3K5 (human); compound 1.0 µM,44%
same,residual activity,MAP3K5 (human); compound 10.0 µM,10%
same,residual activity,PRKCA (human); compound 1.0 µM,95%
same,residual activity,PRKCA (human); compound 10.0 µM,97%
same,residual activity,MAP2K1 (human); compound 1.0 µM,95%
same,residual activity,MAP2K1 (human); compound 10.0 µM,75%
same,residual activity,GCK (human); compound 1.0 µM,88%
same,residual activity,GCK (human); compound 10.0 µM,28%
same,residual activity,MAPK10 (human); compound 1.0 µM,84%
same,residual activity,MAPK10 (human); compound 10.0 µM,50%
same,residual activity,MAPK8 (human); compound 1.0 µM,87%
same,residual activity,MAPK8 (human); compound 10.0 µM,50%
same,residual activity,FLT1 (human); compound 1.0 µM,62%
same,residual activity,FLT1 (human); compound 10.0 µM,13%
same,residual activity,JAK2 JH1 JH2 (human); compound 1.0 µM,72%
same,residual activity,JAK2 JH1 JH2 (human); compound 10.0 µM,35%
same,residual activity,EPHB1 (human); compound 1.0 µM,100%
same,residual activity,EPHB1 (human); compound 10.0 µM,90%
same,residual activity,[2]; compound 1.0 µM,89%
same,residual activity,[2]; compound 10.0 µM,60%
same,residual activity,MAP3K1 (human); compound 1.0 µM,104%
same,residual activity,MAP3K1 (human); compound 10.0 µM,99%
same,residual activity,BTK (human); compound 1.0 µM,131%
same,residual activity,BTK (human); compound 10.0 µM,90%
same,residual activity,MAPK9 (human); compound 1.0 µM,104%
same,residual activity,MAPK9 (human); compound 10.0 µM,89%
same,residual activity,MAP3K11 (human); compound 1.0 µM,23%
same,residual activity,MAP3K11 (human); compound 10.0 µM,5%
same,residual activity,TAOK1 (human); compound 1.0 µM,111%
same,residual activity,TAOK1 (human); compound 10.0 µM,102%
same,residual activity,EPHA2 (human); compound 1.0 µM,107%
same,residual activity,EPHA2 (human); compound 10.0 µM,86%
same,residual activity,DYRK2 (human); compound 1.0 µM,50%
same,residual activity,DYRK2 (human); compound 10.0 µM,17%
same,residual activity,AURKA (human); compound 1.0 µM,97%
same,residual activity,AURKA (human); compound 10.0 µM,55%
same,residual activity,DYRK3 (human); compound 1.0 µM,96%
same,residual activity,DYRK3 (human); compound 10.0 µM,58%
same,residual activity,STK3 (human); compound 1.0 µM,85%
same,residual activity,STK3 (human); compound 10.0 µM,73%
same,residual activity,EPHB2 (human); compound 1.0 µM,110%
same,residual activity,EPHB2 (human); compound 10.0 µM,100%
same,residual activity,EPHB4 (human); compound 1.0 µM,96%
same,residual activity,EPHB4 (human); compound 10.0 µM,87%
same,residual activity,CaMK1 (human); compound 1.0 µM,74%
same,residual activity,CaMK1 (human); compound 10.0 µM,27%
same,residual activity,HIPK2 (human); compound 1.0 µM,88%
same,residual activity,HIPK2 (human); compound 10.0 µM,65%
same,residual activity,BRSK1 (human); compound 1.0 µM,82%
same,residual activity,BRSK1 (human); compound 10.0 µM,50%
same,residual activity,MAPKAPK5 (human); compound 1.0 µM,80%
same,residual activity,MAPKAPK5 (human); compound 10.0 µM,55%
NCC(=O)Nc1ccc(-n2nc(C(F)(F)F)cc2-c2ccc3c(ccc4ccccc43)c2)cc1,residual activity,BRSK2 (human); compound 1.0 µM,76%
same,residual activity,BRSK2 (human); compound 10.0 µM,64%
same,residual activity,TBK1 (human); compound 10.0 µM,83%
same,residual activity,MARK3 (human); compound 1.0 µM,96%
same,residual activity,MARK3 (human); compound 10.0 µM,101%
same,residual activity,PIM1 (human); compound 1.0 µM,92%
same,residual activity,PIM1 (human); compound 10.0 µM,94%
same,residual activity,[1]; compound 1.0 µM,91%
same,residual activity,[1]; compound 10.0 µM,53%
same,residual activity,SYK (human); compound 10.0 µM,85%
same,residual activity,YES1 (human); compound 1.0 µM,85%
same,residual activity,YES1 (human); compound 10.0 µM,80%
same,residual activity,MAPK11 (human); compound 1.0 µM,92%
same,residual activity,MAPK11 (human); compound 10.0 µM,95%
same,residual activity,INSR (human); compound 1.0 µM,98%
same,residual activity,INSR (human); compound 10.0 µM,94%
same,residual activity,HIPK1 (human); compound 1.0 µM,104%
same,residual activity,HIPK1 (human); compound 10.0 µM,90%
same,residual activity,MAP3K5 (human); compound 1.0 µM,86%
same,residual activity,MAP3K5 (human); compound 10.0 µM,83%
same,residual activity,PRKCA (human); compound 1.0 µM,94%
same,residual activity,PRKCA (human); compound 10.0 µM,90%
same,residual activity,MAP2K1 (human); compound 1.0 µM,108%
same,residual activity,MAP2K1 (human); compound 10.0 µM,107%
same,residual activity,GCK (human); compound 1.0 µM,107%
same,residual activity,GCK (human); compound 10.0 µM,92%
same,residual activity,MAPK10 (human); compound 1.0 µM,85%
same,residual activity,MAPK10 (human); compound 10.0 µM,86%
same,residual activity,MAPK8 (human); compound 1.0 µM,107%
same,residual activity,MAPK8 (human); compound 10.0 µM,103%
same,residual activity,FLT1 (human); compound 1.0 µM,79%
same,residual activity,FLT1 (human); compound 10.0 µM,89%
same,residual activity,JAK2 JH1 JH2 (human); compound 1.0 µM,101%
same,residual activity,EPHB1 (human); compound 1.0 µM,72%
same,residual activity,EPHB1 (human); compound 10.0 µM,67%
same,residual activity,[2]; compound 1.0 µM,86%
same,residual activity,[2]; compound 10.0 µM,21%
same,residual activity,MAP3K1 (human); compound 1.0 µM,93%
same,residual activity,MAP3K1 (human); compound 10.0 µM,103%
same,residual activity,BTK (human); compound 1.0 µM,98%
same,residual activity,BTK (human); compound 10.0 µM,96%
same,residual activity,MAPK9 (human); compound 1.0 µM,102%
same,residual activity,MAPK9 (human); compound 10.0 µM,96%
same,residual activity,MAP3K11 (human); compound 1.0 µM,94%
same,residual activity,MAP3K11 (human); compound 10.0 µM,87%
same,residual activity,TAOK1 (human); compound 1.0 µM,103%
same,residual activity,TAOK1 (human); compound 10.0 µM,92%
same,residual activity,EPHA2 (human); compound 1.0 µM,92%
same,residual activity,EPHA2 (human); compound 10.0 µM,94%
same,residual activity,DYRK2 (human); compound 1.0 µM,89%
same,residual activity,DYRK2 (human); compound 10.0 µM,121%
same,residual activity,AURKA (human); compound 1.0 µM,95%
same,residual activity,AURKA (human); compound 10.0 µM,107%
same,residual activity,DYRK3 (human); compound 1.0 µM,108%
same,residual activity,STK3 (human); compound 1.0 µM,106%
same,residual activity,STK3 (human); compound 10.0 µM,81%
same,residual activity,EPHB2 (human); compound 1.0 µM,82%
same,residual activity,EPHB2 (human); compound 10.0 µM,91%
same,residual activity,EPHB4 (human); compound 1.0 µM,116%
same,residual activity,CaMK1 (human); compound 1.0 µM,109%
same,residual activity,CaMK1 (human); compound 10.0 µM,21%
same,residual activity,HIPK2 (human); compound 1.0 µM,88%
same,residual activity,HIPK2 (human); compound 10.0 µM,69%
same,residual activity,BRSK1 (human); compound 1.0 µM,83%
same,residual activity,BRSK1 (human); compound 10.0 µM,89%
same,residual activity,MAPKAPK5 (human); compound 1.0 µM,89%
same,residual activity,MAPKAPK5 (human); compound 10.0 µM,76%
